# Paper PMC9738620, “Computer- and NMR-Aided Design of Small-Molecule Inhibitors of the Hub1 Protein” (Molecules, 2022)
# Ends that are not written are not given here.
# T1: Snu66 peptide-14 (Saccharomyces cerevisiae)
# T1 chain: TNEIREKLGM
# B1: Hub1 1-73 (protein)
# chain: MIEVVCNDRLGKKVRVKCNTDDTIGDLKKLIAAQTGTRWNKIVLKKWYTIFKDHVSLGDYEIHDGMNLELYYQ
# Key:
# Hub1 [1] = molecular target: T2, Hub1 (Saccharomyces cerevisiae, UniProt Q6Q546)
# Description: The NMR measurements were carried out at 300 K on an ultrashielded 600 MHz Bruker AVANCE 3 (Bruker Corporation, Billerica, MA, USA) spectrometer equipped with a liquid nitrogen cryogenic system. Uniform ^15N isotope labeling was achieved by the expression of the protein in the M9 minimal media containing ^15NH4Cl as the sole nitrogen source. The NMR buffer for ^15N-labeled protein was PBS pH 7.4 with 5 mM DTT (dithiothreitol). To provide a lock signal, 10% (v/v) of D2O was added to the samples. Water suppression was carried out using the WATERGATE sequence. Stock solutions of the inhibitors used for titration were prepared in DMSO-d6. The binding of small molecule fragments towards Hub1 was measured with the 2D SOFAST-HMQC spectra of the ^15N-labeled Hub1 recombinant protein in 3-mm NMR capillaries. For the preliminary screening, the mixture of three compounds was added in a molar ratio compound to protein 1:10. Then the ^1H and SOFAST-HMQC spectrum was recorded and compared with the reference spectrum of the protein Hub1 titrated with a suitable amount of DMSO. When any activity occurred, all compounds which were in the mixture were tested one by one. The individual spectra were recorded in 10-fold excess of the inhibitor either by ^1H NMR or SOFAST-HMQC. […] The spectra were processed with TopSpin 3.2 software (Bruker Corporation, Billerica, MA, USA).
# Hub1 [2] = molecular target: T2, Hub1; experiment: biochemical
# Description: Hub1 buffered in 20 mM HEPES, pH 7.5, 100 mM NaCl, 0.05% Tween-20 was labeled using His-Tag Labelling Kit RED-tris-NTA 2nd generation (MO-L018, NanoTemper, Munich, Germany), according to the manufacturer’s protocol. […] The final concentration of Hub1 was 50 nM. All measurements were calculated on a Monolith NT.115 instrument (NanoTemper, Munich, Germany) using the standard capillaries at the excitation power of 60% and the medium MST power in duplicates. The results were analyzed in GraphPad Prism software (GraphPad Prism version 8.0.0 for Windows, GraphPad Software, San Diego, CA, USA).
# Snu66 peptide-14 = molecular target: T1, Snu66 peptide-14; experiment: MST
# T2 sequence (Q6Q546 whole entry, the tested form may be a part): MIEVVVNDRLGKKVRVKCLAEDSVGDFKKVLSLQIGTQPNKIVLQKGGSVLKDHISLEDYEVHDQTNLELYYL
molecule,measurement,setting,value
IREKLGM [Peptide-11],changes in chemical shifts (in words),"Hub1 [1]; 1H NMR, Hub1:peptide ratio 1:1 to 1:10, 300 K",changes in chemical shifts in the aliphatic (δ = 0.04 ppm) and aromatic (δ = 6.5 ppm) regions
same,"chemical shift changes, aliphatic region (δ)","Hub1 [1]; 1H NMR, Hub1:peptide ratio 1:1 to 1:10, 300 K, aliphatic region",0.04 ppm
same,buffer pH after titration,Hub1 [1]; after titration of Hub1 with peptide,6.7
same,binding to Hub1 by MST (in words),"Hub1 [2]; MST, labeled Hub1 50 nM, peptide […] to 250 µM, pH 7.5, duplicates",no significant binding events
TNEIREKLGM [Peptide-14],Kd,Hub1 [2],14 ± 8.3 µM
B1,Kd,Snu66 peptide-14,14 µM
